From article PMC5701947, “β1-Adrenergic Receptor Contains Multiple IA^k and IE^k Binding Epitopes That Induce T Cell Responses with Varying Degrees of Autoimmune Myocarditis in A/J Mice” (Frontiers in Immunology, 2017)
No end group written: not given here.

Tests used:
[1] = test system: T cells (lymph node cells/splenocytes from immunized animals); assay: T cell proliferation assay ([3H]-thymidine); assay type: cell-based, A/J mice; conditions: for T cell responses: animals immunized with pool IV, fold vs medium control
Procedure, shortened: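 Lymph node cells and splenocytes from immunized animals, or magnetically enriched CD4/CD8 T cells (~95% pure) plus peptide-loaded irradiated syngeneic naive splenocytes (1:1), stimulated at ~5 × 10^6 cells/ml with immunizing peptide (0–100 µg/ml) for 2 days. Pulsed with [3H]-thymidine for 16 h; proliferation read as cpm.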

[2] = test system: A/J mice (hearts); assay: Induction of myocarditis by active immunization with peptides (histology); assay type: in vivo; conditions: for Myocarditis incidence / Myocarditis incidence (animals with disease/total) / Inflammatory foci: individual non-acetylated peptide, 100 µg per animal; for Myocarditis incidence / Myocarditis incidence (animals with disease/total): CFA/PT, days 0 and 7, day 21; for Inflammatory foci: mean ± SEM of myocarditic animals
[3] = test system: lymph node cell (LNC) cultures; assay: Cytokine secretion (bead array); assay type: cell-based, A/J mice; conditions: LNC supernatants, 50–100 µg/ml, day 3; P = 0.06
Protocol: Supernatants were obtained from lymph node cell (LNC) cultures prepared from immunized animals that were stimulated with or without acetylated or non-acetylated, β1AR 171–190, β1AR 181–200, and β1AR 211–230 and RNase 43–56/HEL 46–61 (controls) (50–100 µg/ml) on day 3 poststimulations. Cytokine analysis was performed using beads conjugated with capture and detection Abs with the standard curves being derived from serial dilutions of mouse cytokine standard mixtures, consisting of IL-2, interferon (IFN)-γ, IL-4, IL-6, IL-10, IL-17A, and tumor necrosis factor (TNF)-α as recommended by the manufacturer’s guidelines (BD Biosciences). Briefly, capture bead/cytokine antibody conjugates were first prepared, and the mixtures were added to a tube containing diluted standards or test samples, followed by addition of detection antibodies. After acquiring by flow cytometry, FCAP Array Software was used to analyze the data (BD Biosciences) ([26], [30]).

[4] = test system: CD4 T cells; assay: IE^k dextramer staining of CD4 T cells; assay type: cell-based, A/J mice; conditions: IE^k dextramers; cells from β1ARAc 181–200-immunized mice; P = 0.028 vs control dextramer; Figure 4B
From the text: To enumerate the frequencies of antigen-specific CD4 T cells, we created IA^k dextramers for β1AR 171-190 and β1AR 211–230, and IE^k dextramers for β1AR 181–200. To create IA^k dextramers, the nucleotide sequence for β1AR 171–190 ([…]) and β1AR 211–230 ([…]) was inserted into the IA^k-β construct that we had described previously ([35], [39]), whereas IA^k/RNase 43–56 (control) dextramers were readily available in our laboratory ([30], [35], [40]). The soluble, IA^k/β1AR 171–190 and IA^k/β1AR 211–230 molecules were expressed in sf9 cells using baculovirus expression system. After purifying through anti-IA^k-affinity column, the IA^k/β1AR 171–190 and IA^k/β1AR 211–230 monomers were biotinylated and dextramers were derived using streptavidin (SA)/fluorophore-conjugated dextran molecules as described previously ([35], [39]). […]
To stain with dextramers, lymphocytes obtained from lymph nodes and spleens from immunized animals were stimulated with the immunizing peptides namely, β1ARAc 171–190, β1ARAc 181–200, and β1ARAc 211–230 (20 µg/ml) for 2 days and growth medium containing interleukin (IL)-2 (IL-2 medium) was then added. […] After washing, and acquisition by flow cytometry, percent dextramer^+ (dext^+) cells were analyzed within the live cells (7-AAD^−) using Flow Jo software ([34], [35], [39]).

[5] = test system: Balb/c mice; conditions: cited from earlier work
From the text: It has been proposed that acetylated peptides can be prevented from intracellular degradation leading to their stable binding to MHC molecules ([29], [50]). Thus, we decided to use the acetylated peptides, and focused only the peptides that were located within the stretch of β1AR 171–230 (Table 1).

[6] = test system: antigen-primed T cells; assay: Cytokine-producing cells after Th1/Th17 polarization (flow cytometry); assay type: cell-based, A/J mice; conditions: Figure S4
Protocol: Lymph node cells obtained from animals immunized with individual peptides, β1ARAc 171–190, β1ARAc 181–200, or β1ARAc 211–230 on day 21 postimmunizations were stimulated with the corresponding immunizing peptides (20 µg/ml) for 2 days followed by resting in IL-2 medium. In a separate set of experiments, animals were immunized with a mixture of β1ARAc 171–190, 181–200, and 211–230 peptides and their lymphocytes were stimulated with the immunizing peptides individually (50 µg/ml) for 2 days and then IL-2 medium was added. On day 3, one of the two aliquots of cells were exposed to a mixture of Th1- and Th17-polarizing conditions by adding recombinant mouse IL-12 (20 ng/ml), IL-1β (30 ng/ml), IL-6 (30 ng/ml), IL-23 (50 ng/ml) (all cytokines were procured from BioLegend, San Diego, CA, USA), and human transforming growth factor-β1 (10 ng/ml; eBioscience, San Diego, CA, USA) as reported previously ([41]–[44]), and the other was maintained in IL-2 medium alone. Flow cytometrically, we analyzed the percentages of cytokine-producing cells on days 3 and 6 following polarization as we have described previously ([28], [31], [40]). Viable cells harvested on days 8–10 were administered through i.p., or retro-orbital sinus (4–14 × 10^6 cells/animal) into naive mice primed with lipopolysaccharide (LPS, 25 µg/mouse i.p., day −4 and day 0). […]

[7] = test system: CD4 T cells; assay: T cell proliferation assay, enriched CD4 T cells; assay type: cell-based, A/J mice; conditions: CD4 T cells ~95% purity from immunized mice; peptide-loaded irradiated splenocytes 1:1; Figure S3B
Protocol: (§1) At termination, lymph nodes (maxillary, mandibular, axillary, inguinal, and popliteal) and spleens were harvested from immunized animals to prepare single cell suspensions. Similarly, splenocytes were prepared from naive animals. After lysing the erythrocytes and washing, cell pellets were suspended in RPMI medium containing 10% fetal bovine serum, 1 mM sodium pyruvate, 4 mM L-glutamine, 1 × each of non-essential amino acids and vitamin mixture, and 100 U/ml penicillin–streptomycin (Lonza, Walkersville, MD, USA; hereafter called growth medium). In some experiments, CD4 T cells and CD8 T cells were enriched to a purity of ~95% by negative selection based on magnetic separation using IMAG (BD Biosciences, San Jose, CA, USA) ([31]). To stimulate CD4 and CD8 T cells, syngeneic naive irradiated splenocytes loaded with peptides were used as antigen-presenting cells at a ratio of 1:1. Cells were stimulated at a density of ~5 × 10^6 cells/ml in triplicates with or without the immunizing peptides (0–100 µg/ml) in growth medium. RNase 43–56 or HEL 46–61 were used as irrelevant controls. After 2 days, cells were pulsed with tritiated ^3[H]-thymidine (1 μCi/well; MP Biomedicals, Santa Ana, CA, USA), and 16 h later, proliferative responses were measured as counts per minute (cpm) using a Wallac liquid scintillation counter (Perkin Elmer, Waltham, MA, USA) ([26], [28], [30]).

[8] = test system: CD8 T cells; assay: T cell proliferation assay, enriched CD8 T cells; assay type: cell-based, A/J mice; conditions: CD8 T cells ~95% purity from immunized mice; peptide-loaded irradiated splenocytes 1:1; Figure S3B
Protocol: as §1

Substance	T cell responses ([1]; 10 μg/ml) [fold]	T cell responses ([1]; 100 μg/ml) [fold]	Myocarditis incidence [2] [%]	Myocarditis incidence (animals with disease/total) [2]	Inflammatory foci [2]	IL-17A production (in words) [3]	other results
TRARARALVCTVWAISALVS [β1AR 171-190, 20-mer of mouse β1AR peptide library]	2.68	5.13	0	0/5	0	tended to be elevated	–
FAGLKKANERADLIAYLKQATK [MCC 82–103]	–	–	–	–	–	–	percent dext^+ CD4^high T cells [4]: 0.33 ± 0.03%
Myhc 614–643: cardiac myosin heavy chain-α 614–643 (Ac-SLKLMATLFSTYASADTGDSGKGKGGKKKG; UniProt Q02566 614-643, looked up, fragment)	–	–	–	–	–	–	Myocarditis by N-terminally acetylated peptide (in words) [5]: can induce significant myocarditis
TVWAISALVSFLPILMHWWR [β1AR 181-200, 20-mer of mouse β1AR peptide library]	1.70	2.30	20	1/5	2	tended to be elevated	Disease severity (in words) ([2]; individual immunization, non-acetylated peptides): mild disease; Th1 cytokine-producing cells (in words) [6]: significantly enhanced
YNTDGSTDYGILQINSR [HEL 46–61]	–	–	–	–	–	–	T cell responses (in words) ([1]; proliferation, 0–100 µg/ml, 2 days + 16 h [3H]-thymidine, cpm): lacking; CD4 T cell proliferative response (in words) [7]: lacking; CD8 T cell proliferative response (in words) [8]: lacking
